Values of other authors in patent US20170112823A1, “COMPOSITIONS AND METHODS TO TREAT […] RELATED CONDITIONS” (priority 2015, published 2017).

Conditions: frequency of side effect

| Structure (SMILES) | side effects: very commonly, dizziness and drowsiness | side effect: dizziness | side effect: dry mouth | side effect: headache | side effect: nausea |
| --- | --- | --- | --- | --- | --- |
| CC(C)C[C@H](CN)CC(=O)O [LYRICA, Pregabalin] | > 10% | – | – | – | – |
| CNCC[C@H](Oc1cccc2ccccc12)c1cccs1 [Cymbalta, Duloxetine] | – | 19% | 23% | 20% | 34% |
